# From US6436630B1, “Method for testing the toxicity of chemical substances using gastropods” (priority 1998, dated 2002)
# Structures can show the parent of a compound that is named as a salt. Where two headings read alike, the source gives them in different places.
# Assays:
# [1] = tested on: foot mucosa of slugs of species Arion; experiment: Slug mucosal toxicity test, Example 2 (15 min daily treatment, four days); details: in vivo; for % MP, mucus production as % of the body weight at the start of the day before the treatment / ALP released into PBS / Protein released into PBS: Arion (slug)
# Protocol: As test substance a β-blocking agent propranolo HCl (1% w/v) was used. Benzalkonium chloride (1% w/v) and Propranolol (1% w/v) were prepared in PBS (pH 7.4). The slugs were daily incubated during 15 min with the test solution during four days. After the incubation period the slugs were placed on 500 μL PBS in a petri dish. The PBS was sampled every hour and refreshed with 500 μL PBS for 3 hours after the treatment.
# The enzymes (LDH, ALP) and the total protein released into the PBS were determined. The change in body weight and the mucus production caused by the treatment were examined.
# [2] = tested on: foot mucosa of slugs of species Arion; type: in vivo; details: for ALP released into PBS / LDH released into PBS / Protein released into PBS: 1% w/v (HPβCD 5% w/v), total mean of 7 samples/day per slug
# [3] = tested on: foot mucosa of slugs of species Limax; type: in vivo; details: for % MP, mucus production as % of the body weight at the start of the day before the treatment: 1% w/v (HPβCD 5% w/v) in PBS, 15 min; for ALP released into PBS / LDH released into PBS / Protein released into PBS: 1% w/v (HPβCD 5% w/v), total mean of 7 samples/day per slug
# Protocol: Slugs of the species Limax are terrestial slugs have lungs and also a small internal shell. As test substances hydroxypropyl-β-cyclodextrin (HPβCD), sodium tauro-24,25-dihdrofiisidate (STDHF) and sodium deoxycholate were selected. Benzalkonium chloride (1% w/v), HPβCD (5% w/v), STDHF (1% w/v) and SDC (1% w/v) were prepared in phosphate buffered saline (PBS, pH 7.4).
# The enzymes lactate dehydrogenase (LDH) and alkaline phosphatase (ALP) and total protein released into the PBS were determined. The change in body weight and mucus production caused by the treatment were examined.
compound,measurement,setting,value
"CC(C)NCC(O)COc1cccc2ccccc12 (centres unmarked) [Propr, propranolol HCl]","% MP, mucus production as % of the body weight at the start of the day before the treatment",[1]; 1 day,0.77%
same,ALP released into PBS,[1]; 1 day,0.35 U/L
same,Protein released into PBS,[1]; 1 day,4.89 μg/30 μL
same,"% MP, mucus production as % of the body weight at the start of the day before the treatment",[1]; 2 day,3.74%
same,ALP released into PBS,[1]; 2 day,2.19 U/L
same,Protein released into PBS,[1]; 2 day,31.61 μg/30 μL
same,"% MP, mucus production as % of the body weight at the start of the day before the treatment",[1]; 3 day,3.11%
same,ALP released into PBS,[1]; 3 day,17.50 U/L
same,Protein released into PBS,[1]; 3 day,31.36 μg/30 μL
same,"% MP, mucus production as % of the body weight at the start of the day before the treatment",[1]; 4 day,2.80%
same,ALP released into PBS,[1]; 4 day,18.43 U/L
same,Protein released into PBS,[1]; 4 day,20.88 μg/30 μL
same,colour of the mucus excreted by the slugs,[1],orange coloured
same,irritation (in words),[1],considerable irritation
same,membrane damage (in words),[1],severe membrane damage
same,survival of the slugs,[1],all the slugs were dead
"CC(=O)OC1CC2(C)C(CC(O)C3C4(C)CCC(O)C(C)C4CCC32C)C1=C(CCCC(C)C)C(=O)NCCS(=O)(=O)O (centres unmarked) [STDHF, sodium tauro-24,25-dihdrofiisidate]",ranking order of increasing toxicity,[2]; Arion,"PBS, 5% HPβCD<1% STDHF<1% SDC and 1% BAC"
same,LDH release (in words),"[2]; Arion, 1% w/v",slightly increased LDH release
same,body weight change (in words),"[2]; Arion, 1% w/v",decrease in body weight
same,mucus production (in words),"[2]; Arion, HPβCD 5% w/v, STDHF 1% w/v",increased mucus production
same,"% MP, mucus production","[2]; day 1, Arion, 1% w/v (HPβCD 5% w/v) in PBS, 15 min",7.7%
same,ALP released into PBS,"[2]; day 1, Arion",21.77 U/L
same,LDH released into PBS,"[2]; day 1, Arion",18.22 U/L
same,Protein released into PBS,"[2]; day 1, Arion",15.68 μg/30μL
same,"% MP, mucus production","[2]; day 2, Arion, 1% w/v (HPβCD 5% w/v) in PBS, 15 min",3.85%
same,ALP released into PBS,"[2]; day 2, Arion",9.39 U/L
same,LDH released into PBS,"[2]; day 2, Arion",14.44 U/L
same,Protein released into PBS,"[2]; day 2, Arion",2.84 μg/30μL
same,"% MP, mucus production","[2]; day 3, Arion, 1% w/v (HPβCD 5% w/v) in PBS, 15 min",3.45%
same,ALP released into PBS,"[2]; day 3, Arion",8.66 U/L
same,LDH released into PBS,"[2]; day 3, Arion",24.04 U/L
same,Protein released into PBS,"[2]; day 3, Arion",2.79 μg/30μL
same,"% MP, mucus production","[2]; day 4, Arion, 1% w/v (HPβCD 5% w/v) in PBS, 15 min",4.81%
same,ALP released into PBS,"[2]; day 4, Arion",15.14 U/L
same,LDH released into PBS,"[2]; day 4, Arion",20.53 U/L
same,Protein released into PBS,"[2]; day 4, Arion",4.55 μg/30μL
same,"% MP, mucus production","[2]; day 5, Arion, 1% w/v (HPβCD 5% w/v) in PBS, 15 min",4.41%
same,ALP released into PBS,"[2]; day 5, Arion",4.81 U/L
same,LDH released into PBS,"[2]; day 5, Arion",25.65 U/L
same,Protein released into PBS,"[2]; day 5, Arion",4.18 μg/30μL
same,ranking order of increasing toxicity,[3]; Limax,"PBS, 5% HPβCD<1% STDHF<1% SDC and 1% BAC"
same,LDH release (in words),"[3]; Limax, 1% w/v",slightly increased LDH release
same,body weight change (in words),"[3]; Limax, 1% w/v",decrease in body weight
same,mucus production (in words),"[3]; Limax, HPβCD 5% w/v, STDHF 1% w/v",increased mucus production
same,"% MP, mucus production as % of the body weight at the start of the day before the treatment","[3]; day 1, Limax",6.85%
same,ALP released into PBS,"[3]; day 1, Limax",3.81 U/L
same,LDH released into PBS,"[3]; day 1, Limax",1.65 U/L
same,Protein released into PBS,"[3]; day 1, Limax",14.48 μg/30μL
same,"% MP, mucus production as % of the body weight at the start of the day before the treatment","[3]; day 2, Limax",6.16%
same,ALP released into PBS,"[3]; day 2, Limax",6.49 U/L
same,LDH released into PBS,"[3]; day 2, Limax",4.29 U/L
same,Protein released into PBS,"[3]; day 2, Limax",11.67 μg/30μL
same,"% MP, mucus production as % of the body weight at the start of the day before the treatment","[3]; day 3, Limax",7.52%
same,ALP released into PBS,"[3]; day 3, Limax",5.09 U/L
same,LDH released into PBS,"[3]; day 3, Limax",6.02 U/L
same,Protein released into PBS,"[3]; day 3, Limax",6.27 μg/30μL
same,"% MP, mucus production as % of the body weight at the start of the day before the treatment","[3]; day 4, Limax",6.75%
same,ALP released into PBS,"[3]; day 4, Limax",3.28 U/L
same,LDH released into PBS,"[3]; day 4, Limax",18.23 U/L
same,Protein released into PBS,"[3]; day 4, Limax",10.4 μg/30μL
same,"% MP, mucus production as % of the body weight at the start of the day before the treatment","[3]; day 5, Limax",6.6%
same,ALP released into PBS,"[3]; day 5, Limax",3.62 U/L
same,LDH released into PBS,"[3]; day 5, Limax",10.63 U/L
same,Protein released into PBS,"[3]; day 5, Limax",10.36 μg/30μL
hydroxypropyl-β-cyclodextrin [HPβCD],"% MP, mucus production",[2]; in vivo,0%
same,mucus production (in words),[2]; in vivo,no mucus production
same,protein and enzyme release (in words),[2]; in vivo,low protein and enzyme release
same,ranking order of increasing toxicity,[2]; in vivo,"PBS, 5% HPβCD<1% STDHF<1% SDC and 1% BAC"
same,mucus production (in words),[3]; in vivo,no mucus production
same,protein and enzyme release (in words),[3]; in vivo,low protein and enzyme release
same,ranking order of increasing toxicity,[3]; in vivo,"PBS, 5% HPβCD<1% STDHF<1% SDC and 1% BAC"
